For data set [1], the system named is DENV-1 strain TC974#666. Description: Tetravalent RT-qPCR assay, serotype 1. It is filed as cell-based, Dengue virus. As to conditions: RT-qPCR serotype 1 TC974#666, Vero cells. The procedure:
(§1) The antiviral activity of the compounds of the invention was tested against DENV-1 strain TC974#666 (NCPV), DENV-2 strain 16681, DENV-3 strain H87 (NCPV) and DENV-4 strain H241 (NCPV) in a RT-qPCR assay. Therefore, Vero cells were infected with either DENV-1, or -2, or -3, or -4 in the presence or absence of test compounds. At day 3 post-infection, the cells were lysed and cell lysates were used to prepare cDNA of both a viral target (the 3′UTR of DENV; Table 2) and a cellular reference gene (β-actin, Table 2). Subsequently, a duplex real time PCR was performed on a Lightcycler480 instrument. The generated Cp value is inversely proportional to the amount of RNA expression of these targets. Inhibition of DENV replication by a test compound results in a shift of Cp's for the 3′UTR gene. On the other hand, if a test compound is toxic to the cells, a similar effect on β-actin expression will be observed. The comparative ΔΔCp method is used to calculate ECs50, which is based on the relative gene expression of the target gene (3′UTR) normalized with the cellular housekeeping gene (β-actin). In addition, CC50 values are determined based on the Cp values acquired for the housekeeping gene β-actin.
(§2) The culture medium consisted of minimal essential medium supplemented with 2% of heat-inactivated fetal calf serum, 0.04% gentamycin (50 mg/mL) and 2 mM of L-glutamine. Vero cells, obtained from ECACC, were suspended in culture medium and 75 μL/well was added in 96-well plates (10000 cells/well), which already contain the antiviral compounds. […] In addition, each plate contains wells which are assigned as virus controls (containing cells and virus in the absence of compound) and cell controls (containing cells in the absence of virus and compound). Once the cells were added in the plates, the plates were incubated in a fully humidified incubator (37° C., 5% CO2) until the next day. Dengue viruses serotype-1, 2, 3 and 4 were diluted in order to obtain a Cp of ˜22-24 in the assay. Therefore, 25 μL of virus suspension was added to all the wells containing test compound and to the wells assigned as virus control. In parallel, 25 μL of culture medium was added to the cell controls. Next, the plates were incubated for 3 days in a fully humidified incubator (37° C., 5% CO2). After 3 days, the supernatant was removed from the wells and the cells were washed twice with ice-cold PBS (˜100 μL). The cell pellets within the 96-well plates were stored at −80° C. for at least 1 day. Next, RNA was extracted using the Cells-to-CT™ lysis kit, according to the manufacturer's guideline (Life Technologies). The cell lysates can be stored at −80C or immediately used in the reverse transcription step.
(§3) In preparation of the reverse transcription step, mix A (table 3A) was prepared and 7.57 μL/well was dispensed in a 96-well plate. After addition of 5 μL of the cell lysates, a five minute denaturation step at 75° C. was performed (table 3B). Afterwards, 7.43 μL of mix B was added (table 3C) and the reverse transcription step was initiated (table 3D) to generate cDNA.
(§4) Finally, a RT-qPCR mix was prepared, mix C (table 4A), and 22.02 μL/well was dispensed in 96-well LightCycler qPCR plates to which 3 μL of cDNA was added and the qPCR was performed according to the conditions in table 4B on a LightCycler 480.
(§5) Using the LightCycler software and an in-house LIMS system, dose response curves for each compound were calculated and the half maximal effective concentration (EC50) and the half maximal cytotoxic concentration (CC50) were determined (Tables 5-8).

The subject of data set [2] is DENV-3 strain H87. Description: Tetravalent RT-qPCR assay, serotype 3. The class given is cell-based, Dengue virus. As to conditions: RT-qPCR serotype 3 H87, Vero cells. On the procedure: as §1, §2, §3, §4, §5
A general note: Quantitative PCR measures a nucleic acid by following its amplification.

Data set [3] concerns DENV-2 16681 strain. Description: microbe, parasite or virus in culture. The class given is cell-based, Dengue virus. As to conditions: for EC50: DENV-2 16681 eGFP, Vero cells, MOI 0.5, 3 days; for SI: SI=CC50/EC50, DENV-2 antiviral assay.
The nature of data set [4]: in vitro. As to conditions: African green monkey.
In data set [5] the test system is DENV-4 strain H241. The experiment in a line: Tetravalent RT-qPCR assay, serotype 4. It is filed as cell-based, Dengue virus. As to conditions: RT-qPCR serotype 4 H241, Vero cells. The procedure: as §1, §2, §3, §4, §5
Data set [6] concerns DENV-2 strain 16681. Description: Tetravalent RT-qPCR assay, serotype 2. The class given is cell-based, Dengue virus. As to conditions: RT-qPCR serotype 2 16681, Vero cells. The procedure: as §1, §2, §3, §4, §5
The nature of data set [7]: in vitro. As to conditions: African green monkey. The source holds these as a separate data set.
Data set [8] relates to Vero cells. As to conditions: African green monkey.
Data set [9] has as its system Vero cells. As to conditions: African green monkey, 3 days.

What is called EC50 is the concentration giving half of the maximal effect.

Where two headings read alike, the source gives them in different places.

On to `COc1cc(NC(C(=O)N2CCc3ccc(OC(F)(F)F)cc32)c2ccc(Cl)cc2)cc(OCCC(C)C(=O)O)c1` (single isomer, unassigned) [Compound 1C], for which the EC50 in data set [1] (Dengue virus, DENV1, Vero) is 0.23 nM; in [2] (Dengue virus, DENV3, Vero), 2.4 nM; in data set [3], 0.094 nM; in [5] (Dengue virus, DENV4, Vero), 16 nM; in data set [6] (Dengue virus, DENV2, Vero) it was 0.18 nM. Besides, in data set [3], the SI is 131193. The CC50 in data set [4] is 12 µM.
For `COc1cc(NC(C(=O)N2CCc3ccc(OC(F)(F)F)cc32)c2ccc(Cl)cc2)cc(OCCC(C)(C)C(=O)O)c1` (single isomer, unassigned) [Compound 2A], the EC50 in data set [1] (Dengue virus, DENV1, Vero) came out at 0.57 nM; in [2] (Dengue virus, DENV3, Vero), 6.1 nM; in data set [3] it was 0.38 nM; in data set [5] (Dengue virus, DENV4, Vero), 27 nM; in [6] (Dengue virus, DENV2, Vero), 0.48 nM. Moreover, in data set [7], the CC50 at 3 days is more than 2500 nM. The SI in [3] was 34500. This compound registered a CC50 in data set [4] of 13 µM.
Take `COc1cc(NC(C(=O)N2CCc3ccc(OC(F)(F)F)cc32)c2ccc(Cl)cc2)cc(OCC(C)CC(=O)O)c1` (single isomer, unassigned) [Compound 4C]: the CC50 in data set [8] is 13 µM; in [9], more than 1000 nM. Besides, the EC50 in data set [1] worked out at 0.066 nM; in [2], 0.77 nM; in data set [3], 0.11 nM; in data set [5] (Dengue virus, DENV4, Vero), 15 nM; in data set [6], 0.06 nM. The compound also registered an SI in [3] of 121878.
Take `COc1cc(NC(C(=O)N2CCc3ccc(OC(F)(F)F)cc32)c2ccc(Cl)cc2)cc(OCC2(CC(=O)O)CC2)c1` (single isomer, unassigned) [Compound 5A]: the EC50 worked out at 0.58 nM in data set [1] (Dengue virus, DENV1, Vero); 8.1 nM in data set [2] (Dengue virus, DENV3, Vero); 0.51 nM in data set [3]; 58 nM in data set [5] (Dengue virus, DENV4, Vero); 0.42 nM in data set [6] (Dengue virus, DENV2, Vero). In data set [3], this compound returned an SI of 26300. In addition, the CC50 in data set [4] came out at 12 µM.
On to `COc1cc(NC(C(=O)N2CCc3ccc(OC(F)(F)F)cc32)c2ccc(Cl)cc2)cc(OCCCCC(=O)O)c1` (single isomer, unassigned) [Compound 13B], for which the CC50 in data set [8] was determined as 12 µM. Further, the concentration giving a half-maximal response (EC50) in data set [1] (Dengue virus, DENV1, Vero) came out at 0.19 nM; in [2] (Dengue virus, DENV3, Vero) it was 1.9 nM; in [3], 0.13 nM; in data set [5] (Dengue virus, DENV4, Vero), 15 nM; in data set [6] (Dengue virus, DENV2, Vero), 0.12 nM. For the same compound, in data set [7], the CC50 at 3 days was more than 2500 nM. Further, the SI in data set [3] was 88200.
For `COc1cc(CCCCC(=O)O)cc(NC(C(=O)N2CCc3ccc(OC(F)(F)F)cc32)c2ccc(Cl)cc2)c1` (single isomer, unassigned) [Compound 14A], the EC50 in data set [1] (Dengue virus, DENV1, Vero) is 0.26 nM; in data set [2] (Dengue virus, DENV3, Vero) it was 2.8 nM; in data set [3], 0.11 nM; in data set [5] (Dengue virus, DENV4, Vero), 15 nM; in data set [6] (Dengue virus, DENV2, Vero) it was 0.2 nM. In addition, in data set [3], the SI is 151558. This compound also gave a CC50 in data set [4] of 16 µM.
For `COc1cc(NC(C(=O)N2CCc3cc(OC)c(C(F)(F)F)cc32)c2ccc(Cl)cc2)cc(OCCC(C)C(=O)O)c1` (single isomer, unassigned) [Compound 20C], the CC50 in data set [8] was 12 µM; in [9], more than 1000 nM. In addition, the 50% effective concentration (EC50) in data set [1] worked out at 0.3 nM; in [2], 3.4 nM; in data set [3] it was 0.17 nM; in data set [5], 20 nM; in [6] it was 0.071 nM. In [7], this compound had a CC50 at 3 days of more than 1000 nM. In addition, the SI in data set [3] is reported as 59500.
Take `COc1cc(NC(C(=O)N2CCc3cc(OC)c(C(F)(F)F)cc32)c2ccc(Cl)cc2)cc(OCCC(C)C(=O)O)c1` (single isomer, unassigned) [Compound 20D]: the CC50 in data set [8] is 13 µM; in data set [9], more than 1000 nM. Moreover, the EC50 in data set [1] stood at 0.89 nM; in data set [2], 8.9 nM; in data set [3], 0.23 nM; in [5], 55 nM; in data set [6] it was 0.19 nM. The same compound displayed an SI in data set [3] of 53400.
With `COc1cc(NC(C(=O)N2CCc3ccc(OC(F)(F)F)cc32)c2ccc(Cl)cc2)cc(OCC2(F)CC2C(=O)O)c1` (stereo not drawn) [Compound 28BB], the CC50 was 12 µM in data set [8] and more than 1000 nM in data set [9]. The EC50 in data set [1] was determined as 0.11 nM; in data set [2], 1.2 nM; in data set [3] it was 0.2 nM; in data set [5], 18 nM; in data set [6], 0.1 nM. In addition, the SI in data set [3] was found to be 70600.
`COc1cc(NC(C(=O)N2CCc3ccc(OC(F)(F)F)cc32)c2ccc(Cl)cc2)cc(OCC2(F)CC2C(=O)O)c1` (stereo not drawn) [Compound 29BB]: the EC50 amounted to 0.048 nM in [1]; 0.39 nM in data set [2]; 0.069 nM in [3]; 2.8 nM in [5]; 0.025 nM in data set [6]. In data set [3], this compound displayed an SI of 124722. The compound further returned a CC50 in data set [4] of 12 µM.
For the compound `COc1cc(NC(C(=O)N2CCc3cc(F)c(OC(F)(F)F)cc32)c2ccc(Cl)cc2)cc(OCC2CC(C(=O)O)C2)c1` (stereo not drawn) [Compound 30A], the EC50 came to 0.094 nM in data set [1]; 1.9 nM in data set [2] (Dengue virus, DENV3, Vero); 0.24 nM in data set [3]; 18 nM in data set [5] (Dengue virus, DENV4, Vero); 0.076 nM in data set [6] (Dengue virus, DENV2, Vero). This compound registered an SI in [3] of 47400. Further, the CC50 in data set [4] was 13 µM.
